For assay [1], the system named is Myc2345 (DNA, G4) TGAGGGTGGGTAGGGTGGGGAA
In words: fluorescence competition (TAMRA quenching restored by unlabeled DNA). Particulars: K+ (25 mM potassium phosphate, 75 mM KCl); pH 7, 25°C; C50 is concentration of competing unlabeled DNA; 100 nM 3'-TAMRA-Myc2345_T23, PEQ 10:1.

Assay [2] deals with Myc2345_T23 (DNA, G4) TGAGGGTGGGTAGGGTGGGTAA
Put plainly: NMR solution structure. The note with it: K+ 10 mM (potassium phosphate); pH 6.5; PEQ:DNA 3:1; end-stacking on 5'- and 3'-tetrads.

Assay [3] deals with 3'-TAMRA-labeled Myc2345_T23 (DNA, G4) TGAGGGTGGGTAGGGTGGGTAA
Put plainly: TAMRA fluorescence quenching titration. Particulars: K+ (25 mM potassium phosphate, 75 mM KCl); pH 7, 25°C; 100 nM DNA.

Assay [4] deals with Myc2345_T23 (DNA, G4) TGAGGGTGGGTAGGGTGGGTAA
Put plainly: CD melting (260 nm). Particulars: K+ 0.6 mM; potassium phosphate, pH 7; 5 μM DNA, 25 μM PEQ.

Assay [5] shares this test system. Put plainly: fluorescence competition (TAMRA quenching restored by unlabeled DNA). The note with it: K+ (25 mM potassium phosphate, 75 mM KCl); pH 7, 25°C; C50 is concentration of competing unlabeled DNA; 100 nM 3'-TAMRA-Myc2345_T23, PEQ 10:1.
Assay [6] has as its system Myc2345 (DNA, G4) TGAGGGTGGGTAGGGTGGGGAA
Put plainly: NMR solution structure. The note with it: K+ 10 mM (potassium phosphate); pH 7.0; PEQ:DNA 3:1; end-stacking on 5'- and 3'-tetrads.

The test system is the same in assay [7]. In words: CD melting (260 nm). Particulars: K+ 0.6 mM; potassium phosphate, pH 7; 5 μM DNA, 25 μM PEQ.

Structures are written as SMILES.

With `COc1cc(/C=C/c2cc(C(N)=O)c3ccccc3[n+]2C)ccc1O`, the C50 in assay [1] came to 4.86 µM; in assay [5], 3.71 µM. Further, the binding entry in assay [2], in assay [3] and in assay [6] was “yes” each time. For the same compound, the figures for the ΔTm in assay [4] and in assay [7] were 21.1 ± 1.3 °C and 20.1 ± 0.6 °C, respectively.

Source of the values: article PMC8191789 (2021).
